Experimental data reported in US20240350525A1, “HEART DISEASE AGENT AND METHOD FOR IMPROVING HEART DISEASE” (MIRAILAB BIOSCIENCE INC., priority 2021, published 2024).

Tested on: subject
Test: Electrocardiography before and after oral ingestion of NMN capsules in a subject with suspected ventricular extrasystole
Format: in vivo, human
Experimental: On Jun. 4, 2020, electrocardiography was performed on a subject by placing the subject in the supine position, putting clips on the extremities, attaching electrodes to the chest, and using an electrocardiograph (product name: Electrocardiograph ECG-2250, manufactured by NIHON KOHDEN CORPORATION) with leads I to III and leads aVR, aVL, and aVF. The paper feed speed of the electrocardiogram was set to 25 mm/second, and the vertical axis was set to 1 mV=10 mm for recording. The result is indicated in the electrocardiogram of FIG. 2 (horizontal axis: time (second), vertical axis: electric potential (mV)).
Afterwards, from Oct. 18, 2020, the subject was caused to ingest (take orally) one capsule per day of NMN pure 3000 plus (NMN 50 mg/capsule, manufactured by MIRAILAB BIOSCIENCE Inc., trade name) for 47 consecutive days.
Then, on Jan. 4, 2021, electrocardiography was performed again on the above-described subject similarly as described above. The result is indicated in the electrocardiogram of FIG. 3 (horizontal axis: time (second), vertical axis: electric potential (mV)). […] From this, it was confirmed that NMN ingestion was effective for electrocardiogram abnormalities and arrhythmias.

Question: `NC(=O)c1ccc[n+]([C@@H]2O[C@H](COP(=O)([O-])O)[C@@H](O)[C@H]2O)c1` [NMN, nicotinamide mononucleotide] was tested. Which heart rate (after ingestion of one capsule per day (NMN 50 mg/capsule) for 47 consecutive days, 69 bpm before ingestion) did it give?
Answer: The heart rate was 57 bpm.

Question: And the electrocardiogram waveforms (one subject, one capsule per day (NMN 50 mg/capsule) orally for 47 consecutive days, ECG on Jan. 4, 2021)?
Answer: The electrocardiogram waveforms was “appeared with regularity in order”.

Question: And the “QRS complexes having a wide and odd-shaped waveform” value (one subject, one capsule per day (NMN 50 mg/capsule) orally for 47 consecutive days, ECG on Jan. 4, 2021, complexes were recognized before ingestion)?
Answer: The value was “not recognized”.

Question: What about the “effect on electrocardiogram abnormalities and arrhythmias” value (overall conclusion, one subject, NMN 50 mg/day orally for 47 consecutive days) of the same compound?
Answer: Its value is “effective”.
